{
  "source": "patent US6828106B2",
  "about": "“Methods and compositions using coiled binding partners” (Cyclacel Limited, priority 1999, dated 2004)",
  "key": {"[1]": {"target": "T1, TEV protease (Tobacco etch virus, UniProt P04517)", "T1 construct": "Proteolytic cleavage was initiated by the addition of TEV protease (20U, Gibco Life Technologies); histidine tag; purchased Gibco Life Technologies", "T1 sequence (P04517 2038-2279)": "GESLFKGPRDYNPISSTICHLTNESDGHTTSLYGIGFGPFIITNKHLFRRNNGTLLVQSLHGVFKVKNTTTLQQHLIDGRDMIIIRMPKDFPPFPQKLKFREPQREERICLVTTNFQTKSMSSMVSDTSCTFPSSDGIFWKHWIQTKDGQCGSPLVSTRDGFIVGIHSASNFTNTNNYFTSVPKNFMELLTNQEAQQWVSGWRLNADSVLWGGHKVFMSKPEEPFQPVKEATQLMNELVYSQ", "assay": "TEV protease FRET assay with homodimer-forming reporter peptide", "format": "biochemical", "conditions": "0.05-100 mM iodacetamide added prior to TEV protease; 6 μM reporter peptide, 30° C.; FIG. 9; read-out: IC50 value (TEV protease inhibitor iodacetamide) as determined by FRET analysis", "procedure": "(§1) TEV protease activity and inhibition of TEV protease activity was determined by using a peptide capable of forming a homodimer, wherein homodimer formation is decreased following TEV protease cleavage of the peptide, according to the following method.\nFor FRET analysis the reporter peptide (KGR MRCLEDR VENLYSQ SYHLENE VARLRRL VGELAAK) (SEQ ID NO: 32) was labeled with fluorescein or rhodamine. The labeled peptides were incubated at a total peptide concentration of 6 μM (6:1 ratio, R:F) in 50 mM Tris pH 8, and 0.5 mM EDTA, and 1 mM DTT at 30° C. for 15 minutes in a total volume of 100 μl. Proteolytic cleavage was initiated by the addition of TEV protease (20U, Gibco Life Technologies), and monitored during the time course of the reaction by measuring the emission of fluorescein (excitation 485 nm, emission 520 nm) over time. Initial rates of change of fluorescein emission were determined for the linear portion of the reaction.\n(§2) The activity of the TEV protease inhibitor iodacetamide was determined by FRET or FP assays performed as described above in the absence of iodacetamide or in the presence of 0.05-100 mM iodacetamide added prior to the addition of TEV protease. The results of these experiments are presented in FIG. 9 (FRET assay) and FIG. 11 (FP assay)."}, "[2]": {"target": "T1, TEV protease", "assay": "TEV protease FP assay with homodimer-forming reporter peptide", "format": "biochemical", "conditions": "0.05-100 mM iodacetamide added prior to TEV protease; 6 μM reporter peptide, 30° C.; read-out: IC50 value (TEV protease inhibitor iodacetamide) as determined by FP analysis", "procedure": "as §1\nFor FP analysis the reporter peptide (sequence recited above) was labeled with fluorescein or with biotin. The labeled peptides were incubated at a total peptide concentration of 6 μM (6:1 ratio, biotin:F) in 50 mM Tris, pH 8, 0.5 mM EDTA, 0.1 mg/ml BSA and 1 mM DTT at 30° C. for 5 minutes in a total volume of 100 μl. Proteolytic cleavage was initiated by the addition of TEV protease (20U), and monitored during the reaction time course by measuring the polarization of fluorescein (excitation 485 nm, emission 520 nm) over time. Initial rates of change of fluorescein polarization were determined for the linear portion of the reaction.\nas §2"}},
  "data": [
    {"compound": "NC(=O)CI", "note": "[iodacetamide, reference compound]", "values": [
      {"measurement": "IC50", "setting": "[1]", "value": 885, "unit": "µM"},
      {"measurement": "IC50", "setting": "[2]", "value": 1000, "unit": "µM"}
    ]}
  ]
}
